Laboratory results taken from patent US20250295795A1, “PEPTIDE” (priority 2021, published 2025).

What was measured:
Assay type in all cases: cell-based, human
HeLa cells [1] = assay: Co-delivery of antibodies, antibody fragments and RFP into live Hela cells
From the text: Access to the cytosol by mechanisms that are independent of transmembrane pore formation constitutes a preferred method of co-delivery due to reduced toxicity to the cell. […] Successful delivery of Fab is indicated by homogenous distribution of AF647 signal in the cytosol and nucleus and is only observed in cells which have been transduced with tri-cTat B (FIG. 13). Time course of Fab uptake by tri-cTat B (FIG. 5c) follows a similar pattern as tri-cTat B alone (FIG. 3b, d). Tri-cTat B and Fab form large vesicle-like bodies that appear to release their contents into the cytosol of the cell; unambiguous cytosolic staining by Fab is observed from 23 min. Interaction between peptide trimer and biomacromolecule, mediated by charge-charge interactions is essential for the accumulation of both in endosomes and subsequent release and delivery of cargo into cells. Delivery of relatively β-sheet rich, neutrally charged recombinant RFP was unsuccessful (FIG. 16) due to a lack of association between tri-cTat B and cargo (FIG. 17). On the other hand, interaction diminishes the efficacy of the peptide trimer due to charge masking, emphasising the need to maintain an appropriate peptide to cargo ratio for a given macromolecule. Experiments to explore the efficacy of tri-cTat B in the presence of serum supplemented medium underline this principle; while tri-cTat B continues to function in the presence of serum, the number of transduced cells diminishes (42% (serum) vs. 61% (serum free)), but can be restored by increasing tri-cTat B concentration to 2 μM (79% (serum); FIG. 15). […] This is likely due to the larger size of antibodies and also to the observation that antibodies have a greater tendency to aggregate in the presence of tri-cTat B compared to Fab fragments. […] Finally, we investigated whether it is possible to deliver functional antibodies and antibody fragments into the cytosol and nuclei of cells. β-actin was chosen as a proof-of-principle protein because of its abundance in the cell and formation of distinctive subcellular filaments. To clearly identify actin filaments, Hela cells were transfected with red fluorescent protein fused to actin (actin-RFP) before being incubated with β-actin antibody (mouse IgG2b) or β-actin Fab fragment (mouse) conjugated to AF647 plus tri-cTat B for 30 min. After washing, cells were left for 60 min to allow IgG/Fab to bind to actin filaments. […] To enable objective quantification of co-localization between β-actin filaments and IgG/Fab fragment (white arrows), a co-localization threshold algorithm was used in selected regions of interest (ROI). Pearson's and Manders' coefficients were obtained under Costes' automatic threshold^32 and the co-localized pixels are shown as a mask of yellow pixels of constant intensity (co-localization panels). The significance of the co-localization parameters (Pearson's and Manders' coefficients) was evaluated using the confined displacement algorithm (CDA).
HeLa and CHO cells were cultured in DMEM supplemented with 10% FBS and penicillin/streptomycin. For post-wash experiments, Tat conjugate was added to the cells in serum free medium, cells incubated at 37° C. in an atmosphere of 5% CO2, culture medium removed at the desired time point, cells washed and transferred to the microscope for imaging. For time course or pre-wash experiments, cells were transferred to the microscope (incubation chamber at 37° C., 5% CO2) and Tat conjugate added directly to cell medium and cells imaged at desired time points. Co-delivery experiments were conducted by adding peptide trimer immediately followed by cargo into serum free medium. Samples were visualised using a Zeiss LSM 780 inverted confocal microscope fitted with a XLmultiS1 incubation chamber and Plan-Apochromat 63×/1.40 Oil DIC M27 objective. Images were analysed using ImageJ software. Digital adjustments and image processing are consistent throughout the manuscript, unless otherwise stated in the figure legend. […]

HeLa cells [2] = assay: Time course of uptake in Hela cells (continuous live cell confocal microscopy, ROI profile analysis); settings: 1 μM; representative cells
Procedure: To better understand the mechanism by which tri-Tat A and tri-cTat B enter the cytosol and the nucleus, we investigated the uptake kinetics of the conjugates during the first 15 min after their addition to Hela cells using confocal live cell microscopy. Tri-Tat A (FIG. 3a) or tri-cTat B (FIG. 3b) (1 μM) were added to the cells and images acquired from 1 min to 15 min at 60 sec intervals. The two trimers show distinct uptake patters into Hela cells; to better understand the difference in uptake kinetics, we drew cross sectional profile plots through representative cells treated with tri-Tat A (FIG. 3c) and tri-cTat B (FIG. 3d). […] To investigate whether findings in individual cells also apply to larger populations, we extended the plot profile analysis by designating regions of interest (ROI) corresponding to plasma membrane, cytosol (excluding endosomes), nucleus, and nucleoli along the cross section, using information from brightfield images.^30 Average fluorescence intensities for each ROI, at each time point, in six cells per treatment group were calculated and plotted in FIGS. 3e-3h.
(§1) HeLa and CHO cells were cultured in DMEM supplemented with 10% FBS and penicillin/streptomycin. For post-wash experiments, Tat conjugate was added to the cells in serum free medium, cells incubated at 37° C. in an atmosphere of 5% CO2, culture medium removed at the desired time point, cells washed and transferred to the microscope for imaging. For time course or pre-wash experiments, cells were transferred to the microscope (incubation chamber at 37° C., 5% CO2) and Tat conjugate added directly to cell medium and cells imaged at desired time points. Co-delivery experiments were conducted by adding peptide trimer immediately followed by cargo into serum free medium. Samples were visualised using a Zeiss LSM 780 inverted confocal microscope fitted with a XLmultiS1 incubation chamber and Plan-Apochromat 63×/1.40 Oil DIC M27 objective. Images were analysed using ImageJ software. Digital adjustments and image processing are consistent throughout the manuscript, unless otherwise stated in the figure legend. Statistical analysis was carried out using GraphPad Prism 7 software and all data used for statistical analysis consists of measurements from distinct cells. Where applicable a parametric, unpaired, two-tailed t-test was used for statistical testing.

HeLa cells [3] = assay: Live cell confocal microscopy: cellular uptake and intracellular distribution of Tat conjugates in HeLa cells
Procedure: The cellular uptake and intracellular distribution of Tat-trimers and monomeric controls was investigated by performing live cell confocal microscopy of HeLa (human, cervical cancer) and CHO (Chinese hamster, […]). Following washing, images were acquired using a Zeiss 780 confocal microscope fitted with an incubation chamber (FIG. 2). In accordance with observations that free Tat in the cytosol readily enters the nucleus and strongly binds to nucleoli,^29 homogenous staining of cytoplasm and nucleoli were considered as indicative of cells having accumulated free conjugate, not confined to endosomes, for quantification purposes. […] The uptake and intracellular distribution of tri-Tat A is similar in live Hela and CHO cells (FIG. 2b,d,e).
Following washing, images were acquired using a Zeiss 780 confocal microscope fitted with an incubation chamber. In accordance with observations that free Tat in the cytosol readily enters the nucleus and strongly binds to nucleoli,^29 homogenous staining of cytoplasm and nucleoli were considered as indicative of cells having accumulated free conjugate, not confined to endosomes, for quantification purposes. The results were compared to tri-Tat A (8) and tri-cTat B (17).
as §1

With `N=C(N)NCCC[C@@H]1NC(=O)[C@H](CCCNC(=N)N)NC(=O)[C@H](CCCNC(=N)N)NC(=O)[C@H](CCC(N)=O)NC(=O)[C@H](CCCNC(=N)N)NC(=O)[C@H](CCCNC(=N)N)NC(=O)[C@H](CCCCN)NC(=O)[C@H](CCCCN)NC(=O)[C@H](CCCNC(=N)N)NC(=O)[C@H](CCCCn2cc(COCC(COCc3cn(CCCCCCNC(=O)c4ccc5c(c4)C(=O)OC54c5ccc(N)c(S(=O)(=O)O)c5Oc5c4ccc(N)c5S(=O)(=O)O)nn3)(COCc3cn(CCCC[C@@H]4NC(=O)CC[C@@H](C(N)=O)NC(=O)[C@H](CCCNC(=N)N)NC(=O)[C@H](CCCNC(=N)N)NC(=O)[C@H](CCCNC(=N)N)NC(=O)[C@H](CCC(N)=O)NC(=O)[C@H](CCCNC(=N)N)NC(=O)[C@H](CCCNC(=N)N)NC(=O)[C@H](CCCCN)NC(=O)[C@H](CCCCN)NC(=O)[C@H](CCCNC(=N)N)NC4=O)nn3)COCc3cn(CCCC[C@@H]4NC(=O)CC[C@@H](C(N)=O)NC(=O)[C@H](CCCNC(=N)N)NC(=O)[C@H](CCCNC(=N)N)NC(=O)[C@H](CCCNC(=N)N)NC(=O)[C@H](CCC(N)=O)NC(=O)[C@H](CCCNC(=N)N)NC(=O)[C@H](CCCNC(=N)N)NC(=O)[C@H](CCCCN)NC(=O)[C@H](CCCCN)NC(=O)[C@H](CCCNC(=N)N)NC4=O)nn3)nn2)NC(=O)CC[C@@H](C(N)=O)NC1=O` (stereo partly shown) [tri-cTat B] the “cells showing homogenous AF647 staining in cytosol and nucleus (whole IgG co-delivery)” value (HeLa cells [1]; 166 nM IgG-AF647 + 1 μM trimer, 45 min) was “approximately 20%”, the “cells with Fab delivered into cytosol and nucleus” value (HeLa cells [1]; 500 nM AF647-labelled non-specific mouse Fab + 1 μM trimer, 30 min) was 50% and the “time from which unambiguous cytosolic staining by Fab is observed” value (HeLa cells [1]; 500 nM Fab-AF647 + 1 μM trimer) was 23 min. The “delivery of recombinant RFP” value (HeLa cells [1]; 1 μM trimer + 1 or 2 μM recombinant RFP, 30 min, serum free) was “unsuccessful”, the “association with plasma membrane (profile plots)” value (HeLa cells [2]) was “little association with plasma membrane” and the “transduction efficacy in comparison (average fluorescence intensity per cell, percentage of transduced cells)” value (HeLa cells [3]; 1 μM, 60 min, serum-free) was “more effective at cellular transduction in comparison to tri-cTat A”. For the same molecule, the “cellular uptake and intracellular distribution” value (HeLa cells [3]; HeLa cells, 1 μM, 60 min, serum-free DMEM, post-wash) was “taken up into the cytosol and nucleoli”, the “number of transduced cells” value (HeLa cells [3]; serum free, 1 μM) was 61% and the “number of transduced cells” value (HeLa cells [3]; serum supplemented medium, 1 μM, 60 min) was 42%. The “number of transduced cells” value (HeLa cells [3]; serum supplemented medium, 2 μM, 60 min) was 79%.
